Laboratory results from PubChem BioAssay (NCI).
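Test compounds were applied to cells in 96-well plates for 48 hours at 5 doses. GI50 = concentration required for 50% inhibition of growth. TGI marks complete inhibition of growth.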

Assays:
Assay in all cases: NCI tumour cell line growth inhibition, 48 h
[1] = test system: 786-0 renal
[2] = test system: A498 renal
[3] = test system: A549 NSCLC
[4] = test system: ACHN renal
[5] = test system: BT-549 breast
[6] = test system: CAKI-1 renal
[7] = test system: CCRF-CEM leukemia
[8] = test system: COLO 205 colon
[9] = test system: DU-145 prostate
[10] = test system: EKVX NSCLC
[11] = test system: HCC-2998 colon
[12] = test system: HCT-15 colon
[13] = test system: HL-60(TB) leukemia
[14] = test system: HOP-62 NSCLC
[15] = test system: HOP-92 NSCLC
[16] = test system: HS 578T breast
[17] = test system: HT29 colon
[18] = test system: IGROV1 ovarian
[19] = test system: K-562 leukemia
[20] = test system: KM12 colon
[21] = test system: LOX IMVI melanoma
[22] = test system: M14 melanoma
[23] = test system: MALME-3M melanoma
[24] = test system: MCF7 breast
[25] = test system: MDA-MB-231 breast
[26] = test system: MDA-MB-435
[27] = test system: MOLT-4 leukemia
[28] = test system: NCI-H226 lung
[29] = test system: NCI-H23 lung
[30] = test system: NCI-H460 lung
[31] = test system: NCI-H522 lung
[32] = test system: NCI/ADR-RES ovarian
[33] = test system: OVCAR-3 ovarian
[34] = test system: OVCAR-4 ovarian
[35] = test system: OVCAR-5 ovarian
[36] = test system: OVCAR-8 ovarian
[37] = test system: PC-3 prostate
[38] = test system: RPMI-8226 leukemia
[39] = test system: RXF 393 renal
[40] = test system: SF-268 CNS
[41] = test system: SF-295 CNS
[42] = test system: SF-539 CNS
[43] = test system: SK-MEL-2 melanoma
[44] = test system: SK-MEL-28 melanoma
[45] = test system: SK-MEL-5 melanoma
[46] = test system: SK-OV-3 ovarian
[47] = test system: SN12C renal
[48] = test system: SNB-19 CNS
[49] = test system: SNB-75 CNS
[50] = test system: SR leukemia
[51] = test system: SW-620 colon
[52] = test system: T-47D breast
[53] = test system: TK-10 renal
[54] = test system: U251 CNS
[55] = test system: UACC-257 melanoma
[56] = test system: UACC-62 melanoma
[57] = test system: UO-31 renal

Molecule `COC(=O)c1ccc2c(c1)c1c(C)c3cnccc3c(C)c1n2C` has a GI50 [1] of 66.6 nM, a TGI [1] of 1340 nM and a GI50 [2] of 34.8 nM. The TGI [2] was 166 nM, the GI50 [3] was 61.5 nM and the TGI [3] was 658 nM. It also gave a GI50 [4] of 29.7 nM, a TGI [4] of 299 nM and a GI50 [5] of 247 nM. For the same molecule, the TGI [5] was 3540 nM, the GI50 [6] was 35.4 nM and the TGI [6] was 610 nM. The GI50 [7] was 103 nM, the TGI [7] was 13800 nM and the GI50 [8] was 38.7 nM. The TGI [8] was 277 nM, the GI50 [9] was 51.3 nM and the TGI [9] was 1280 nM. The GI50 [10] was 186 nM, the TGI [10] was 623 nM and the GI50 [11] was 137 nM. It also gave a TGI [11] of 3850 nM, a GI50 [12] of 39.4 nM and a TGI [12] of 1380 nM. It also gave a GI50 [13] of 243 nM, a TGI [13] of 1050 nM and a GI50 [14] of 53.8 nM. It also gave a TGI [14] of 995 nM, a GI50 [15] of 65.3 nM and a TGI [15] of 584 nM. For the same molecule, the GI50 [16] was 108 nM, the TGI [16] was 584 nM and the GI50 [17] was 41.8 nM. For the same molecule, the TGI [17] was 1400 nM, the GI50 [18] was 32.3 nM and the TGI [18] was 569 nM. For the same molecule, the GI50 [19] was 44.2 nM, the TGI [19] was 1800 nM and the GI50 [20] was 49.5 nM. The TGI [20] was 1890 nM, the GI50 [21] was 39.1 nM and the TGI [21] was 194 nM. For the same molecule, the GI50 [22] was 62.2 nM, the TGI [22] was 241 nM and the GI50 [23] was 61.5 nM. It also gave a TGI [23] of 314 nM, a GI50 [24] of 109 nM and a TGI [24] of 511 nM. It also gave a GI50 [25] of 125 nM, a TGI [25] of 884 nM and a GI50 [26] of 58.5 nM. For the same molecule, the TGI [26] was 1090 nM, the GI50 [27] was 46.8 nM and the TGI [27] was 3130 nM. The GI50 [28] was 57.4 nM, the TGI [28] was 341 nM and the GI50 [29] was 53 nM. For the same molecule, the TGI [29] was 328 nM, the GI50 [30] was 178 nM and the TGI [30] was 674 nM. It also gave a GI50 [31] of 66.7 nM, a TGI [31] of 528 nM and a GI50 [32] of 49.8 nM. The TGI [32] was 636 nM, the GI50 [33] was 65.2 nM and the TGI [33] was 1150 nM. For the same molecule, the GI50 [34] was 83.9 nM, the TGI [34] was 531 nM and the GI50 [35] was 117 nM. For the same molecule, the TGI [35] was 1260 nM, the GI50 [36] was 59.5 nM and the TGI [36] was 3790 nM. For the same molecule, the GI50 [37] was 57.9 nM, the TGI [37] was 4060 nM and the GI50 [38] was 47.5 nM. The TGI [38] was 409 nM, the GI50 [39] was 51.2 nM and the TGI [39] was 286 nM. It also gave a GI50 [40] of 61.8 nM, a TGI [40] of 3060 nM and a GI50 [41] of 65.2 nM. For the same molecule, the TGI [41] was 558 nM, the GI50 [42] was 75 nM and the TGI [42] was 763 nM. The GI50 [43] was 107 nM, the TGI [43] was 471 nM and the GI50 [44] was 95.1 nM. It also gave a TGI [44] of 444 nM, a GI50 [45] of 86.6 nM and a TGI [45] of 253 nM. It also gave a GI50 [46] of 107 nM, a TGI [46] of 527 nM and a GI50 [47] of 44 nM. The TGI [47] was 1300 nM, the GI50 [48] was 50.9 nM and the TGI [48] was 7650 nM. It also gave a GI50 [49] of 72 nM, a TGI [49] of 563 nM and a GI50 [50] of 37.2 nM. The TGI [50] was 2040 nM, the GI50 [51] was 37.5 nM and the TGI [51] was 1310 nM. It also gave a GI50 [52] of 280 nM, a TGI [52] of 2250 nM and a GI50 [53] of 277 nM. For the same molecule, the TGI [53] was 3350 nM, the GI50 [54] was 49.9 nM and the TGI [54] was 1480 nM. The GI50 [55] was 101 nM, the TGI [55] was 511 nM and the GI50 [56] was 41.6 nM. It also gave a TGI [56] of 151 nM, a GI50 [57] of 36.9 nM and a TGI [57] of 821 nM.
